Values belong to the molecule of their own block, whether it stands above or below them.
What was measured:
CaM = test: Stern-Volmer quenching of CaM-bound ANS by acrylamide
From the text: Given that steady state fluorescence cannot differentiate the intensity contribution from individual ANS molecules, we utilized time-correlated single-photon counting (TCSPC) spectrometry to measure the ANS fluorescence decay. […] The data was best fit with a three-exponential-decay function. The shortest lifetime (τ3 = ~0.3 ns) was assigned to that of free ANS molecules, which was confirmed by using an ANS solution alone. Note that this lifetime reaches the detection limitation of our instrument and therefore, it cannot be determined precisely. […] The fitting also provided the fractional (or relative amplitude), fs, which weights the “amount” of the emitting species, and the normalized pre-exponential value, Bs, which provides the relative concentration of each species. […] In other words, the long lifetime component of ANS is one order less quenched by acrylamide.
For a quenching that is purely by collision, the steady-state and lifetime Stern-Volmer quenching equation can be expressed as4 <τo>/<τ>=1+KsvQandKsv=kqxτ0 where τ and τo are the lifetime in the presence and absence of the quencher, and kq is the quenching rate constant.

[1] = ANS steady-state fluorescence (hydrophobicity probe); type: biochemical; conditions: for ANS fold enhancement: pH 7.5, 0.1 M NaCl, 2 mM Ca^2+
From the text: It is well known that the exposure of the hydrophobic patches of CaM is essential for target protein recognition. Such hydrophobic exposure can be photometrically monitored by its interaction with extrinsic 1-anilinonaphthalene 8-sulfonate (ANS) and 2-p-toluidinyl-naphthalene-6-sulfonate (TNS) molecules. These two fluorophores have been widely used as a probe for measuring hydrophobicity. ANS is a fluorescent dye which emits very weak fluorescence in water due to its excited charge transfer (CT) state that is quenched easily by water molecules. […] ANS fluorescence increases dramatically in a hydrophobic environment or when the rotational motion of its phenylamino group is restricted. […] The fluorescence increased when Ca^2+ was included in the mixture.
ANS fluorescence was excited at 350 nm.
Absorption measurements were carried out using a UV-1800 double-beam spectrometer (Shimadzu, Kyoto, Japan). The fluorescence spectra were recorded on a FluoroMax-3P (Horiba Scientific) equipped with a temperature control unit. For intrinsic Trp fluorescence, the excitation wavelength of 295 nm was chosen. […] The samples containing ANS or dansyl-labeled proteins were excited at 350 and 370 nm, respectively. The slit widths of 2 and 5 nm were typically chosen for excitation and emission, respectively, to eliminate photobleaching.

[2] = Far-UV circular dichroism; conditions: Ca^2+-bound, 0.1 mg/ml protein, 10 mM Tris, pH 7.5
Procedure: The CD spectra were recorded in a JASCO J-715 instrument (JASCO Corporation, Japan) equipped with a temperature control unit. CD spectra were recorded using a cylindrical 0.1 cm path length quartz curvet and were shown as the average of 3–6 scans using a spectra bandwidth of 1.0 nm. In all measurements, 0.1 mg/ml proteins in 10 mM Tris, pH 7.5 with 1–2 mM Ca^2+ or 0.5 mM EDTA were scanned from 190 nm to 260 nm.

[3] = ANS binding by isothermal titration calorimetry; conditions: 30 mM Hepes, 25°C
From the text: The heat evolved is proportional to the amount of the ANS/Ca^2+-CaM complex formation. […] We fit the data with “one set of sites” to obtain the apparent association binding constant (Kapp) of 2.10 ± 0.11 × 10^3 M^−1 for Ca^2+-CaM (Table 1), consistent with a previous report. […] Based on our studies, the middle point from the ITC thermogram (and the inflection point in the corresponding derived binding isotherm) indicates approximately 4–6 bound-ANS molecules in Ca^2+-CaM. Therefore, Kapp is proportional to the actual number of protein-bound ANS molecules in the experimental condition. In the text below, we will discuss Kapp as the ANS binding affinity for simplicity.
The ITC data were fit with a “one set of sites” model as described in the Experimental section.
The ITC experiments were carried out on a VP-ITC (GE, Pittsburgh, PA). Protein samples were buffer-exchanged to the desired buffer. Peptide concentration was prepared by adding buffer to the peptide powder as measured by weight. All samples were degassed 15–30 min before loading. To avoid buffer mismatch, the syringe and sample cells were rinsed with the desired buffer prior to sample loading. A typical titration was performed by sequential injections every 120–180 sec of 5–10 μL solution at 25°C. The ITC raw data was corrected for the heat of titrant dilution determined by an experiment conducted in identical conditions except that no protein was contained in the sample cell. The corrected data, after integration of heat evolved, was fitted with Origin software provided by the manufacturer to determine Ka and the observed or apparent ΔH (ΔHapp).

[4] = target: CaM(1TnC): domain 1 of TnC and domains 2, 3 and 4 of CaM; test: ITC; 1 mM Orai-CMBD titrated into 30 uM CaM or chimera; 10 mM Tris, pH 7.5, 0.1 M NaCl, 2 mM Ca2+, 25°C; 'one set of sites' or two sequential binding sites model
dansyl-labeled CaM(1TnC) = test: stopped-flow fluorescence (dissociation chase); 5 uM dansyl-labeled CaM or chimera with 15 uM Orai-CMBD, 2 mM Ca2+, mixed with 75 uM unlabeled CaM, 2 mM Ca2+; dansyl fluorescence decay (excitation 370 nm), single exponential fit
[5] = ref [13]; cited from earlier work
From the text: It is well known that the exposure of the hydrophobic patches of CaM is essential for target protein recognition. Such hydrophobic exposure can be photometrically monitored by its interaction with extrinsic 1-anilinonaphthalene 8-sulfonate (ANS) and 2-p-toluidinyl-naphthalene-6-sulfonate (TNS) molecules. These two fluorophores have been widely used as a probe for measuring hydrophobicity. ANS is a fluorescent dye which emits very weak fluorescence in water due to its excited charge transfer (CT) state that is quenched easily by water molecules.

[6] = no reference given; cited from earlier work
From the text: (§1) Given the structural similarities and functional differences of CaM an ...

nNOS = conditions: ref [12]; cited from earlier work
From the text: as §1

Ca^2+-ATPase = conditions: ref [13]; cited from earlier work
From the text: as §1

Molecule: O=S(=O)(O)c1cccc2cccc(Nc3ccccc3)c12 [ANS, 1-anilinonaphthalene 8-sulfonate]
kq (quenching rate constant), short lifetime (CaM; τ1 ANS): 2.2e+08 M⁻¹ s⁻¹
kq (quenching rate constant), τ2 (CaM; τ2 ANS): 1.9e+07 M⁻¹ s⁻¹

increase of ANS fluorescence intensity on Orai-CMBD binding ([1]; Ca^2+-bound protein): ~ 10%
K app ([3]; in the absence of salt, pH 7.5, 2 mM Ca^2+, apparent association constant, one set of sites): 2.10 ± 0.11 × 10^3 M^−1
K app ([3]; in the presence of salt and Orai-CMBD, pH 7.5, 0.1 M NaCl, 2 mM Ca^2+): 3.43 ± 0.65 × 10^3 M^−1
K app ([3]; in the presence of salt, pH 7.5, 0.1 M NaCl, 2 mM Ca^2+, apparent association constant): 3.69 ± 0.08 × 10^3 M^−1
Molecule: Calmodulin [CaM]
ANS fluorescence change ([1]; absence of Ca^2+): exhibited no change
ANS enhancement ([1]; in the absence of salt, 30 mM Hepes, pH 7.5, 2 mM Ca^2+, spectra integration vs apo protein, at least three repeats, three protein batches): 3.01 ± 0.12 fold
ANS fold enhancement ([1]; in the presence of salt and Orai-CMBD, 30 mM Hepes, vs apo protein): 3.87 ± 0.10 fold
ANS fold enhancement ([1]; in the presence of salt, 30 mM Hepes, spectra integration vs apo protein): 3.49 ± 0.07 fold
ellipticity ratio θ220/θ209 [2]: ~ 1

Ka1 (first of two sequential sites) [4]: 757000 M⁻¹
Ka2 (second of two sequential sites) [4]: 17000 M⁻¹
dH1 (first of two sequential sites) [4]: -4.99 kcal/mol
dH2 (second of two sequential sites) [4]: -3.33 kcal/mol
stoichiometry N [4]: 2
koff (dansyl-labeled CaM(1TnC)): 2.44 s⁻¹
Molecule: Orai-CMBD, 24-residue peptide corresponding to the CaM-binding domain of Orai1 (residues 68-91)

Molecule: Troponin C [TnC]
interaction with ANS [5]: no interaction between TnC and ANS
Ca^2+ affinity of EF4 relative to that of CaM [6]: one order higher
binding to / activation of nNOS (nNOS): can neither bind to nor activate nNOS
affinity for Ca^2+-ATPase (Ca^2+-ATPase): very low affinity
